Source: PubChem BioAssay AID256 (DTP/NCI, 2004)
Toxic doses and inconclusive results are not listed. The calls were made as follows: active = survival T/C of 150% or more; inactive = T/C below 125% in these data.

System: CD2F1 mice, L1210 leukemia ip, survival T/C
Assay: NCI In Vivo Anticancer Drug Screen. Data for tumor model L1210 Leukemia (intraperitoneal) in CD2F1 (CDF1) mice
Details: higher = longer survival
Outline: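 Tumor-bearing mice (transplanted tumor) were split into treated and vehicle control groups, and the measured endpoint of each treated group was divided by that of its vehicle controls.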

[1] = endpoint: mean survival time, dose: 100.0 mg/kg/injection, schedule: Q01DX001 (ip), vehicle: saline
[2] = endpoint: mean survival time, dose: 200.0 mg/kg/injection, schedule: Q01DX001 (ip), vehicle: saline
[3] = endpoint: mean survival time, dose: 100.0 mg/kg/injection, schedule: Q01DX001 (ip), vehicle: Klucel (hydroxypropylcellulose) (HPC)
[4] = endpoint: mean survival time, dose: 200.0 mg/kg/injection, schedule: Q01DX001 (ip), vehicle: Klucel (hydroxypropylcellulose) (HPC)
[5] = endpoint: mean survival time, dose: 50.0 mg/kg/injection, schedule: Q01DX009 (ip), vehicle: saline with Tween-80
[6] = endpoint: mean survival time, dose: 100.0 mg/kg/injection, schedule: Q01DX009 (ip), vehicle: saline with Tween-80
[7] = endpoint: mean survival time, dose: 200.0 mg/kg/injection, schedule: Q01DX009 (ip), vehicle: saline with Tween-80
[8] = endpoint: mean survival time, dose: 100.0 mg/kg/injection, schedule: Q04DX002 (ip), vehicle: saline with Tween-80
[9] = endpoint: mean survival time, dose: 400.0 mg/kg/injection, schedule: Q01DX001 (ip), vehicle: saline
[10] = endpoint: mean survival time, dose: 100.0 mg/kg/injection, schedule: Q04DX003 (ip), vehicle: saline with Tween-80
[11] = endpoint: mean survival time, dose: 200.0 mg/kg/injection, schedule: Q04DX003 (ip), vehicle: saline with Tween-80
[12] = endpoint: mean survival time, dose: 400.0 mg/kg/injection, schedule: Q04DX003 (ip), vehicle: saline with Tween-80

Measured: T/C

CC(C)(C)C(NO)C(O)N1CCCCC1 (stereo not given)
inactive: [1] 97 % of control | [2] 95 % of control

Cn1cnc(=S)c2ccccc21
inactive: endpoint: mean survival time, dose: 25.0 mg/kg/injection, schedule: Q04DX003 (ip), vehicle: Klucel (hydroxypropylcellulose) (HPC) 104 % of control | endpoint: mean survival time, dose: 50.0 mg/kg/injection, schedule: Q04DX003 (ip), vehicle: Klucel (hydroxypropylcellulose) (HPC) 93 % of control

COc1cc2c(cc1OC)-c1c3c(cc4c1[C@@H](C2)N(C)CC4)OCO3
inactive: endpoint: median survival time, dose: 12.5 mg/kg/injection, schedule: Q01DX005 (ip), vehicle: distilled water + Tween-80 96 % of control | endpoint: median survival time, dose: 25.0 mg/kg/injection, schedule: Q01DX005 (ip), vehicle: distilled water + Tween-80 104 % of control | endpoint: median survival time, dose: 50.0 mg/kg/injection, schedule: Q01DX005 (ip), vehicle: distilled water + Tween-80 87 % of control | endpoint: median survival time, dose: 100.0 mg/kg/injection, schedule: Q01DX005 (ip), vehicle: distilled water + Tween-80 107 % of control

O=C(N/N=C/c1ccccc1O)c1ccccc1
inactive: [3] 112 % of control | endpoint: mean survival time, dose: 100.0 mg/kg/injection, schedule: Q01DX009 (ip), vehicle: Klucel (hydroxypropylcellulose) (HPC) 94 % of control | [4] 105 % of control | endpoint: mean survival time, dose: 200.0 mg/kg/injection, schedule: Q01DX009 (ip), vehicle: Klucel (hydroxypropylcellulose) (HPC) 104 % of control | endpoint: mean survival time, dose: 400.0 mg/kg/injection, schedule: Q01DX001 (ip), vehicle: Klucel (hydroxypropylcellulose) (HPC) 95 % of control | endpoint: mean survival time, dose: 400.0 mg/kg/injection, schedule: Q01DX009 (ip), vehicle: Klucel (hydroxypropylcellulose) (HPC) 102 % of control

c1ccc(NSc2ccccc2)cc1
inactive: [5] 101 % of control | [6] 101 % of control | [7] 96 % of control

CC([NH-])c1ccccc1.[Cl][Pt]([Cl])[Cl] (stereo not given)
inactive: endpoint: mean survival time, dose: 100.0 mg/kg/injection, schedule: Q04DX003 (ip), vehicle: saline 101 % of control | endpoint: mean survival time, dose: 200.0 mg/kg/injection, schedule: Q04DX003 (ip), vehicle: saline 100 % of control | endpoint: mean survival time, dose: 400.0 mg/kg/injection, schedule: Q04DX003 (ip), vehicle: saline 101 % of control

CCCC(CN(C)C)C(=O)c1ccccc1 (stereo not given)
inactive: [8] 86 % of control

Cc1ccccc1CN1C2=NCCN2C(=O)C2=C1CCN(S(=O)(=O)c1ccc(Cl)c(S(N)(=O)=O)c1)C2
inactive: endpoint: median survival time, dose: 25.0 mg/kg/injection, schedule: Q01DX009 (ip), vehicle: saline 95 % of control | endpoint: median survival time, dose: 50.0 mg/kg/injection, schedule: Q01DX009 (ip), vehicle: saline 100 % of control | endpoint: median survival time, dose: 100.0 mg/kg/injection, schedule: Q01DX009 (ip), vehicle: saline 93 % of control | endpoint: median survival time, dose: 400.0 mg/kg/injection, schedule: Q01DX009 (ip), vehicle: saline 88 % of control

O=[N+]([O-])c1ccccc1N/N=C/c1ccccc1
inactive: [1] 100 % of control | [2] 97 % of control | [9] 97 % of control

O=C(OCC(OC(=O)c1ccccc1)C1OC(c2ccccc2)OC1C(COC(=O)c1ccccc1)OC(=O)c1ccccc1)c1ccccc1 (stereo not given)
inactive: [10] 97 % of control | [11] 101 % of control | [12] 97 % of control

O=C(Nc1cc([N+](=O)[O-])ccc1F)N(CCO)C1CCCCC1
inactive: [6] 98 % of control | [7] 98 % of control | endpoint: mean survival time, dose: 400.0 mg/kg/injection, schedule: Q01DX009 (ip), vehicle: saline with Tween-80 103 % of control

c1ccc([P+](Cc2ccc3ccccc3n2)(c2ccccc2)c2ccccc2)cc1
inactive: endpoint: mean survival time, dose: 6.25 mg/kg/injection, schedule: Q01DX009 (ip), vehicle: saline 108 % of control | endpoint: mean survival time, dose: 12.5 mg/kg/injection, schedule: Q01DX009 (ip), vehicle: saline 112 % of control

CC1=CCCC(C)C2CC(C(C)(C)O)CC12 (stereo not given)
inactive: [1] 93 % of control | [2] 91 % of control | [9] 95 % of control

c1ccc2c(c1)Nc1ccncc1S2
inactive: [10] 94 % of control | [11] 96 % of control | [12] 112 % of control

CNC(=O)O/N=C(\CN=[N+]=[N-])C(C)(C)C
inactive: endpoint: median survival time, dose: 0.25 mg/kg/injection, schedule: Q01DX009 (ip), vehicle: saline 102 % of control | endpoint: median survival time, dose: 0.5 mg/kg/injection, schedule: Q01DX009 (ip), vehicle: saline 96 % of control | endpoint: median survival time, dose: 1.0 mg/kg/injection, schedule: Q01DX009 (ip), vehicle: saline 103 % of control

Nc1cc(=S)c2nnn(C3OC(CO)C(O)C3O)c2[nH]1 (stereo not given)
inactive: endpoint: mean survival time, dose: 25.0 mg/kg/injection, schedule: Q01DX009 (ip), vehicle: water 100 % of control | endpoint: mean survival time, dose: 50.0 mg/kg/injection, schedule: Q01DX009 (ip), vehicle: water 104 % of control | endpoint: mean survival time, dose: 100.0 mg/kg/injection, schedule: Q01DX009 (ip), vehicle: water 93 % of control | endpoint: mean survival time, dose: 200.0 mg/kg/injection, schedule: Q01DX009 (ip), vehicle: water 86 % of control | endpoint: mean survival time, dose: 400.0 mg/kg/injection, schedule: Q01DX009 (ip), vehicle: water 89 % of control

Nc1cn2ncnc2c(=O)[nH]1
inactive: endpoint: median survival time, dose: 50.0 mg/kg/injection, schedule: Q01DX005 (ip), vehicle: saline 106 % of control | endpoint: median survival time, dose: 100.0 mg/kg/injection, schedule: Q01DX005 (ip), vehicle: saline 106 % of control | endpoint: median survival time, dose: 200.0 mg/kg/injection, schedule: Q01DX005 (ip), vehicle: saline 113 % of control

Cc1cc(S(=O)(=O)F)cc(Cl)c1OC(=S)N(C)C
inactive: [8] 96 % of control | endpoint: mean survival time, dose: 200.0 mg/kg/injection, schedule: Q04DX002 (ip), vehicle: saline with Tween-80 96 % of control | endpoint: mean survival time, dose: 400.0 mg/kg/injection, schedule: Q04DX002 (ip), vehicle: saline with Tween-80 92 % of control

CC(=O)Nc1nc(CCl)cs1
inactive: [3] 92 % of control | [4] 87 % of control

O=C(O)c1ccc(N/N=C/C(F)(F)F)cc1
inactive: endpoint: mean survival time, dose: 1.87 mg/kg/injection, schedule: Q01DX009 (ip), vehicle: saline 107 % of control | endpoint: mean survival time, dose: 3.75 mg/kg/injection, schedule: Q01DX009 (ip), vehicle: saline 105 % of control | endpoint: mean survival time, dose: 6.25 mg/kg/injection, schedule: Q01DX001 (ip), vehicle: saline with Tween-80 97 % of control | endpoint: mean survival time, dose: 7.5 mg/kg/injection, schedule: Q01DX009 (ip), vehicle: saline 105 % of control | endpoint: mean survival time, dose: 12.5 mg/kg/injection, schedule: Q01DX001 (ip), vehicle: saline with Tween-80 94 % of control | endpoint: mean survival time, dose: 12.5 mg/kg/injection, schedule: Q01DX009 (ip), vehicle: saline with Tween-80 107 % of control | endpoint: mean survival time, dose: 15.0 mg/kg/injection, schedule: Q01DX009 (ip), vehicle: saline 109 % of control | endpoint: mean survival time, dose: 25.0 mg/kg/injection, schedule: Q01DX001 (ip), vehicle: saline with Tween-80 94 % of control | endpoint: mean survival time, dose: 25.0 mg/kg/injection, schedule: Q01DX009 (ip), vehicle: saline with Tween-80 109 % of control | endpoint: mean survival time, dose: 50.0 mg/kg/injection, schedule: Q01DX001 (ip), vehicle: saline with Tween-80 101 % of control | [5] 101 % of control | endpoint: mean survival time, dose: 100.0 mg/kg/injection, schedule: Q01DX001 (ip), vehicle: saline with Tween-80 95 % of control | endpoint: mean survival time, dose: 200.0 mg/kg/injection, schedule: Q01DX001 (ip), vehicle: saline with Tween-80 89 % of control | endpoint: mean survival time, dose: 400.0 mg/kg/injection, schedule: Q01DX001 (ip), vehicle: saline with Tween-80 118 % of control

C[n+]1ccccc1CCc1cccc[n+]1C
inactive: endpoint: mean survival time, dose: 50.0 mg/kg/injection, schedule: Q01DX009 (ip), vehicle: saline 100 % of control | endpoint: mean survival time, dose: 100.0 mg/kg/injection, schedule: Q01DX009 (ip), vehicle: saline 100 % of control | endpoint: mean survival time, dose: 200.0 mg/kg/injection, schedule: Q01DX009 (ip), vehicle: saline 104 % of control
